What all share (type): physicochemical
Data set [1] in a line: Long term stability testing. The conditions noted are these: 30±2C., 65±5% relative humidity. How it is done:
(§1) Long term and accelerated stability testing was carried out on crystalline rimonabant Form C.
(§2) Each sample was hermetically sealed in double HMHDPE bags and placed in fibre drum. Quantity of sample=0.8 gm per analysis. Storage conditions (long term)=30±2C., 65±5% relative humidity. Storage conditions (accelerated)=40±2° C., 75±5% relative humidity.

Data set [2] in a line: Accelerated stability testing. The settings on record: 40±2° C., 75±5% relative humidity. How it is done:
as §1, §2

Data set [3] is described as follows: Comparative intrinsic dissolution study (HPLC-UV method). The settings on record: 900 ml of 1% Sodium Lauryl Sulphate in 0.05 M NaH2PO4 buffer pH 6.6, 50 RPM, 37° C. How it is done: Intrinsic dissolution was studied using an HPLC-UV method with the following parameters:
Dissolution media:—900 ml of 1% Sodium Lauryl Sulphate (SLS) in buffer.
Buffer: 0.05 M NaH2PO4 pH 6.6 with NaOH
Mobile Phase:Buffer:Acetonitrile 30:70 Buffer 0.02 M NaH2PO4 0.1% Triethylamine pH 2.5 with phosphoric acid.
Column: YMC Pack Pro 18 15 cm.
Pressure applied for preparation of pellet=2.5 tonns for 5 mins.
Filter=Whatman 0.45 micron.
The results of the intrinsic dissolution study are illustrated in the graph in FIG. 5.

The mark [4] stands for this setting: initially, at 1 month, at 2 months and at 3 months.

Each structure is given as a SMILES string.

With `Cc1c(C(=O)NN2CCCCC2)nn(-c2ccc(Cl)cc2Cl)c1-c1ccc(Cl)cc1` [Form C, N-piperidino-5-(4-chlorophenyl)-1-(2,4-dichlorophenyl)-4-methyl-3-pyrazolecarboxamide], the “Assay (98.0%–102.0% w/w)” value is 99.86 % w/w in data set [1] (Initial); 99.13 % w/w in data set [1] (period of keeping (3 months)); 101.36 % w/w in data set [2] (1 Month); 100.67 % w/w in data set [2] (2 Months); 99.45 % w/w in data set [2] (3 Months); 99.86 % w/w in data set [2] (Initial). Also, the “Chromatographic purity by HPLC Individual impurity NMT 0.10%” value in data set [1] (Initial), in data set [1] (period of keeping (3 months)), in data set [2] (1 Month), in data set [2] (2 Months), in data set [2] (3 Months) and in data set [2] (Initial) was 0.08% throughout. For the same molecule, the “Chromatographic purity by HPLC Total impurities NMT 1.00%” value in data set [1] (Initial) turned out to be 0.20%; in data set [1] (period of keeping (3 months)), 0.20%; in data set [2] (1 Month), 0.16%; in data set [2] (2 Months), 0.21%; in data set [2] (3 Months), 0.20%; in data set [2] (Initial) it was 0.20%. For the same molecule, the “Water Content (By KF) NMT 5.0% w/w” value in data set [1] (Initial) is 3.08 % w/w; in data set [1] (period of keeping (3 months)) it was 3.08 % w/w; in data set [2] (1 Month), 3.94 % w/w; in data set [2] (2 Months), 4.27 % w/w; in data set [2] (3 Months) it was 4.07 % w/w; in data set [2] (Initial), 3.08 % w/w. The description of sample result in data set [1] (initially and at 3 months) is recorded as “white colour powder”; in data set [2] (setting [4]) it was “white colour powder”. The “polymorphic identity confirmed by XRPD, IR and DSC” value in data set [1] (initially and at 3 months) is listed as “Form C”; in data set [2] (setting [4]), “Form C”. The Remarks result in data set [1] (period of keeping (3 months)) is on record as “Product is stable”.

In the case of `Cc1c(C(=O)NN2CCCCC2)nn(-c2ccc(Cl)cc2Cl)c1-c1ccc(Cl)cc1` [amorphous, N-piperidino-5-(4-chlorophenyl)-1-(2,4-dichlorophenyl)-4-methyl-3-pyrazolecarboxamide], in data set [3], the “order of intrinsic dissolution” value is “amorphous >Form C >Form I”.

Values taken from patent publication US20080070949A1, “POLYMORPHS OF RIMONABANT” (Cipla Limited, priority 2006, published 2008).
